Test results reported in ChEMBL document CHEMBL3217539, “Design, synthesis and biological evaluation of new molecules inhibiting epidermal growth factor receptor threonine790 methionine790 mutant” (Medchemcomm, 2012).
Active and inactive are the calls of the source. The calls are words filed in the database; no cut-off is given here.

Key:
[1] = target: Epidermal growth factor receptor (Homo sapiens, UniProt P00533, T790M); experiment: Inhibition of EGFR kinase T790M mutant (unknown origin) after 1.5 hrs by FRET-based Z'-Lyte assay; assay type: protein assay
NCI-H1975 = experiment: cells; assay type: functional, cell-based; details: Homo sapiens, NCI-H1975, 72 h
[2] = target: Epidermal growth factor receptor (Homo sapiens, UniProt P00533); experiment: Inhibition of wild type EGFR kinase (unknown origin) after 1.5 hrs by FRET-based Z'-Lyte assay
[3] = target: Epidermal growth factor receptor (Homo sapiens, UniProt P00533, L861Q); experiment: Inhibition of EGFR kinase L861Q mutant (unknown origin) after 1.5 hrs by FRET-based Z'-Lyte assay; assay type: protein assay
[4] = Cytotoxicity against human HCC827 cells expressing EGFR kinase E746 to A750 deletion mutant after 72 hrs by MTS assay; assay type: functional, cell-based; details: HCC827, 72 h
[5] = Cytotoxicity against human HL7702 cells expressing wild type EGFR after 72 hrs by MTS assay; assay type: ADME, cell-based; details: L02, 72 h
[6] = target: Epidermal growth factor receptor (Homo sapiens, UniProt P00533, L858R); experiment: Inhibition of EGFR kinase L858R mutant (unknown origin) after 1.5 hrs by FRET-based Z'-Lyte assay; assay type: protein assay
[7] = target: Epidermal growth factor receptor (Homo sapiens, UniProt P00533, L858R/T790M); experiment: Inhibition of EGFR kinase L858R/T790M double mutant (unknown origin) after 1.5 hrs by FRET-based Z'-Lyte assay; assay type: protein assay
[8] = Selectivity ratio of IC50 for human HL7702 cells expressing wild type EGFR to IC50 for human H1975 cells expressing EGFR kinase L858R/T790M double mutant; assay type: ADME, cell-based; details: read-out: Ratio IC50
[9] = Selectivity ratio of IC50 for human HL7702 cells expressing wild type EGFR to IC50 for human H1975 cells expressing EGFR kinase […]; assay type: ADME, cell-based; details: read-out: Ratio IC50
[10] = test system: Epidermal growth factor receptor (Homo sapiens), P00533 [L858R,T790M]; experiment: Inhibition of EGFR kinase L858R/T790M double mutant phosphorylation in human H1975 cells at >= 50 nM after 24 hrs by Western blotting analysis; assay type: cell-based
[11] = test system: Epidermal growth factor receptor (Homo sapiens), P00533 [L858R,T790M]; experiment: Inhibition of EGFR kinase L858R/T790M double mutant phosphorylation in human H1975 cells after 24 hrs by Western blotting analysis; assay type: cell-based

Epidermal growth factor receptor (Homo sapiens, UniProt P00533, L861Q), sequence (P00533 25-1210 L861Q limits assumed): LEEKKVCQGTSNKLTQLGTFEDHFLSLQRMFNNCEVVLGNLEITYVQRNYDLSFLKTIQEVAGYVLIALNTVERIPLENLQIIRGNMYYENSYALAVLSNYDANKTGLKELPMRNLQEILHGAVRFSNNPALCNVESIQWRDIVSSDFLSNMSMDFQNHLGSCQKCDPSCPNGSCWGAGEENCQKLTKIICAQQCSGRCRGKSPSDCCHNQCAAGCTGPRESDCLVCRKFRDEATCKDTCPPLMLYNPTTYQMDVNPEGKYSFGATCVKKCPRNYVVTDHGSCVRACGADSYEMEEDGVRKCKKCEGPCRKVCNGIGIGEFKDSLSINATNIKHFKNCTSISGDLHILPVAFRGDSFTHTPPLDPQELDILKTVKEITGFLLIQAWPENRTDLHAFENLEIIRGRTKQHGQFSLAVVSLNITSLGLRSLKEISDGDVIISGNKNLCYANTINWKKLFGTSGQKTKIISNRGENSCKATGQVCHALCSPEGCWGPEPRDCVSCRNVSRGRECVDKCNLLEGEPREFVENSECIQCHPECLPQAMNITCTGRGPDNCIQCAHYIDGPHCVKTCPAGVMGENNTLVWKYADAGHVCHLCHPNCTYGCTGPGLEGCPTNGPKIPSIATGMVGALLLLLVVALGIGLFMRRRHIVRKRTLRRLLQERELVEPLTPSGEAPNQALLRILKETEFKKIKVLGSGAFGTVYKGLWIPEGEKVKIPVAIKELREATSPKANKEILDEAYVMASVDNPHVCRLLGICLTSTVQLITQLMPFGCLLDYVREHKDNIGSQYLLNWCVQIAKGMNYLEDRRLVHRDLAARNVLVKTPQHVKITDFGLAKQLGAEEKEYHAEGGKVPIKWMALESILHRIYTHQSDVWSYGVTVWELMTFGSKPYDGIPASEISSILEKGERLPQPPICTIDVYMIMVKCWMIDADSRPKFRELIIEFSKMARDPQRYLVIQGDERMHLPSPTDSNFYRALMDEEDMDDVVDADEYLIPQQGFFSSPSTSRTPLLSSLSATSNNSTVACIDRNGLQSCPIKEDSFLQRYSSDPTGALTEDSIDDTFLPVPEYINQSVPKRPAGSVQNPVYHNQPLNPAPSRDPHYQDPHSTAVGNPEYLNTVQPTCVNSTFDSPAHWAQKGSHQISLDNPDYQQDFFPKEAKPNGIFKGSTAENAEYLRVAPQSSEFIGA
Epidermal growth factor receptor (Homo sapiens, UniProt P00533, L858R), sequence (P00533 25-1210 L858R limits assumed): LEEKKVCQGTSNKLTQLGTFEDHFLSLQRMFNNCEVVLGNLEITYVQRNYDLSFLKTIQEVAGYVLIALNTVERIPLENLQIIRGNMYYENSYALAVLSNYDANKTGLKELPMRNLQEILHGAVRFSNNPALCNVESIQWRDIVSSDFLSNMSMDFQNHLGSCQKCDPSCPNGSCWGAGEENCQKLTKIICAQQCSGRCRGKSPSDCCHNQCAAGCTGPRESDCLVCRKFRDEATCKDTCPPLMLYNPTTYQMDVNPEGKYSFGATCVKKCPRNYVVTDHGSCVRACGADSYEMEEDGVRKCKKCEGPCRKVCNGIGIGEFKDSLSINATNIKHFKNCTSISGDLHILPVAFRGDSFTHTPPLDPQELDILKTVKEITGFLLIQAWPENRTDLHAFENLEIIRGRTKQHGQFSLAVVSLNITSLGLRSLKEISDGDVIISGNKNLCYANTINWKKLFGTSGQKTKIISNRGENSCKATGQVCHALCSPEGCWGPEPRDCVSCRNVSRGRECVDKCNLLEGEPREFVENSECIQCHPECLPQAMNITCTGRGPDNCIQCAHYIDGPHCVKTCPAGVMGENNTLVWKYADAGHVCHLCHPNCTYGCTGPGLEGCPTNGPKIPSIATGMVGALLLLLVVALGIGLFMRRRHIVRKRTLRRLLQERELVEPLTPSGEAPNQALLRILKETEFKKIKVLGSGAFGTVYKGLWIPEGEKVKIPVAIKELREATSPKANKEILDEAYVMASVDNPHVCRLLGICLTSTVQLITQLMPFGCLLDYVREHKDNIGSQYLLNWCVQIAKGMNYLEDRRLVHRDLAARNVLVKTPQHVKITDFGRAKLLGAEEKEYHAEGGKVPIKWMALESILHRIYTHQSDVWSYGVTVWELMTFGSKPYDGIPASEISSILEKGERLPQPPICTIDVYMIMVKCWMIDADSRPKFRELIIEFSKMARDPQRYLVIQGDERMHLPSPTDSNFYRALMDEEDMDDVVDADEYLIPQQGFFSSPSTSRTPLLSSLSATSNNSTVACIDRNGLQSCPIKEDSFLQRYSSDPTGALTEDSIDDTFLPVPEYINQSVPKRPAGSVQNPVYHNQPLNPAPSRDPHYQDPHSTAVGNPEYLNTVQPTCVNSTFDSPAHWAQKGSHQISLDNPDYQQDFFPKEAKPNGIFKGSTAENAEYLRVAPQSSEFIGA
Epidermal growth factor receptor (Homo sapiens, UniProt P00533, T790M), sequence (P00533 25-1210 T790M limits assumed): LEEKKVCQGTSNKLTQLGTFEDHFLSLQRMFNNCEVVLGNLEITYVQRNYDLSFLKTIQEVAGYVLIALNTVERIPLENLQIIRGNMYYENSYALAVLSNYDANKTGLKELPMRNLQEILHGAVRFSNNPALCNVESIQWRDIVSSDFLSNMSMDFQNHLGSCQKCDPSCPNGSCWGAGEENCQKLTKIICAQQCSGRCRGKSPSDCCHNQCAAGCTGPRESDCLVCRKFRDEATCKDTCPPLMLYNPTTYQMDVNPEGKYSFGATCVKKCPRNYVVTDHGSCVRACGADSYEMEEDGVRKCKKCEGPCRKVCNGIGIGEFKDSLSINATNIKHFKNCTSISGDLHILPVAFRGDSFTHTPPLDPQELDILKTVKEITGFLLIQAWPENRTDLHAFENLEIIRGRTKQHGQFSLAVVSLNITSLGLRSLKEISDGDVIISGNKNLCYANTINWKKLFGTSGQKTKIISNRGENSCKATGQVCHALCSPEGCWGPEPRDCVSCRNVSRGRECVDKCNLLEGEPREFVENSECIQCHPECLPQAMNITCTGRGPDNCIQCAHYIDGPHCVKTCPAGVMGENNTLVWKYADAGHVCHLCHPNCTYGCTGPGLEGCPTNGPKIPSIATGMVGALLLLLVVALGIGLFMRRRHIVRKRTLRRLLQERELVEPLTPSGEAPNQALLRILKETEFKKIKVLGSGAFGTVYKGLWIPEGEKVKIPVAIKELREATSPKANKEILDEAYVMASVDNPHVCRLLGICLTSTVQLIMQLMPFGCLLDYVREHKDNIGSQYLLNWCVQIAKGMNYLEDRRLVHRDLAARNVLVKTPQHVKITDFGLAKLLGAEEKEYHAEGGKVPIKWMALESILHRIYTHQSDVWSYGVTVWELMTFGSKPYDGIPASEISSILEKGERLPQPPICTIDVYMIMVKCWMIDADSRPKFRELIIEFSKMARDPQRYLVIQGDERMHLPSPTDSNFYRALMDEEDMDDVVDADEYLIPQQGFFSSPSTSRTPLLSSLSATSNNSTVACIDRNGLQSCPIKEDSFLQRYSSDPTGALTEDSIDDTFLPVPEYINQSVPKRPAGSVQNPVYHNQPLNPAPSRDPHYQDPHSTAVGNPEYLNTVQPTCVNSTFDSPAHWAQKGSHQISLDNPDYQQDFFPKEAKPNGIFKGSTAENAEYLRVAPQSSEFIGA
Epidermal growth factor receptor (Homo sapiens, UniProt P00533), sequence (P00533 whole entry): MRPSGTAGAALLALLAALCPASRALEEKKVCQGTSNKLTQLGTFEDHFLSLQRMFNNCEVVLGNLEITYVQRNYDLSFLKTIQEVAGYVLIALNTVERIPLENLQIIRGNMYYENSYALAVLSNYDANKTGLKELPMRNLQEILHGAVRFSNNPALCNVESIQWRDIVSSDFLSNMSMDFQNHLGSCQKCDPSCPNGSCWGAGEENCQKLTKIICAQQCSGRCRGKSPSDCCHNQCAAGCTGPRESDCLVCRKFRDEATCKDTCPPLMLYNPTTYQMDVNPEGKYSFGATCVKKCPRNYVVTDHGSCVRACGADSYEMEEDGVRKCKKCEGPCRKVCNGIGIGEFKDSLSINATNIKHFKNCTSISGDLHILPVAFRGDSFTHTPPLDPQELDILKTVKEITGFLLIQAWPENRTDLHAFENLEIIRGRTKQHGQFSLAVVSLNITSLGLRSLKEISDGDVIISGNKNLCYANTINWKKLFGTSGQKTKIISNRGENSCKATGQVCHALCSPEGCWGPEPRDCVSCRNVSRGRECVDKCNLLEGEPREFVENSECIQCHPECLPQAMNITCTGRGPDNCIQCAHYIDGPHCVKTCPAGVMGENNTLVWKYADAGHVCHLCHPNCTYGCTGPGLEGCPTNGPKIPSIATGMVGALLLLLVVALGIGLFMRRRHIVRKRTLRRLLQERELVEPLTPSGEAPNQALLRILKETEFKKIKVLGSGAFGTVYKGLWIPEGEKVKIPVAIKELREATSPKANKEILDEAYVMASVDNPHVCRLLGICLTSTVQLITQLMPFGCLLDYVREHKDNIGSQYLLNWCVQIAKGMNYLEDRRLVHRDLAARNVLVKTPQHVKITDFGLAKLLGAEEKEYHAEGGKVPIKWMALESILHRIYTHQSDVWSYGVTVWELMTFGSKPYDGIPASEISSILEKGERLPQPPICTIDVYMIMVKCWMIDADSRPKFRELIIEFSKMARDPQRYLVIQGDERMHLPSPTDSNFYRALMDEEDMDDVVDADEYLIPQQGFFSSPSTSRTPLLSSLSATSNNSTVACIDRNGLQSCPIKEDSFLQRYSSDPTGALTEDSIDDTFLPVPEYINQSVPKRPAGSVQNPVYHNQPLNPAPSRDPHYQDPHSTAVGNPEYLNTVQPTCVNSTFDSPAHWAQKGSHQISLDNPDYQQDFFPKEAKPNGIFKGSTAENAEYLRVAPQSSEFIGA

Structure (SMILES) | IC50 [1] [nM] | IC50 (NCI-H1975) [nM] | IC50 [2] [nM] | IC50 [3] [nM] | IC50 [4] [nM] | IC50 [5] [nM] | IC50 [6] [nM] | IC50 [7] [nM] | selectivity ratio [8] | selectivity ratio [9] | inhibition [10] | inhibition [11]
C=CC(=O)Nc1cccc(N2C(=O)CN(Cc3ccccc3)C(=O)c3cnc(Nc4ccc(N5CCN(C)CC5)cc4OC)nc32)c1 | 84.2 | 2590 | 6.26 | 8.4 | 87 | 17500 | 9.12 | 32.8 | – | – | – | –
C=CC(=O)Nc1cccc(N2C(=O)C(Cc3ccccc3)N(C)C(=O)c3cnc(Nc4ccc(N5CCN(C)CC5)cc4OC)nc32)c1 (stereo not given) | 16.5 | 89 | 4.68 | 5.3 | 24 | 25600 | 8.33 | 8.95 | 200 | 200 | Active | Dose-dependent effect
C=CC(=O)Nc1cccc(N2C(=O)CN(c3ccccc3)C(=O)c3cnc(Nc4ccc(N5CCN(C)CC5)cc4OC)nc32)c1 | 221 | 9190 | 6.99 | 6.86 | 140 | 1710 | 30.7 | 194 | – | – | – | –
C=CC(=O)Nc1cccc(N2C(=O)C3CCCCN3C(=O)c3cnc(Nc4ccc(N5CCN(C)CC5)cc4OC)nc32)c1 (stereo not given) | 115 | 990 | 2.45 | 2.74 | 68 | 23000 | 4.3 | 40.7 | – | – | – | –
C=CC(=O)Nc1cccc(Oc2nc(Nc3ccc(N4CCN(C)CC4)cc3OC)ncc2Cl)c1 | – | 87 | – | – | 24 | 9150 | – | – | – | – | – | –
C=CC(=O)Nc1cccc(N2C(=O)C(Cc3ccc(Cl)cc3)N(C)C(=O)c3cnc(Nc4ccc(N5CCN(C)CC5)cc4OC)nc32)c1 (stereo not given) | – | 470 | – | – | 300 | 8730 | – | – | – | – | – | –
C=CC(=O)Nc1cccc(N2C(=O)CN(C)C(=O)c3cnc(Nc4ccc(N5CCN(C)CC5)cc4OC)nc32)c1 | 110 | 11700 | 9.14 | 22.3 | 1680 | 44500 | 15.1 | 52.6 | – | – | – | –
C=CC(=O)Nc1cccc(N2C(=O)C(C(C)CC)N(C)C(=O)c3cnc(Nc4ccc(N5CCN(C)CC5)cc4OC)nc32)c1 (stereo not given) | 86.8 | 1110 | 10.2 | 7.25 | 600 | 15000 | 13.2 | 87.5 | – | – | – | –
C=CC(=O)Nc1cccc(N2C(=O)C(C(C)C)N(C)C(=O)c3cnc(Nc4ccc(N5CCN(C)CC5)cc4OC)nc32)c1 (stereo not given) | 44 | 650 | 24.8 | 24.1 | 69 | 28200 | 56.5 | 24.8 | – | – | – | –
C=CC(=O)Nc1cccc(N2C(=O)C(Cc3ccc(F)cc3)N(C)C(=O)c3cnc(Nc4ccc(N5CCN(C)CC5)cc4OC)nc32)c1 (stereo not given) | 17.9 | 69 | 5.78 | 7.57 | 71 | 13700 | 24.5 | 14.1 | 200 | 200 | Active | Dose-dependent effect
C=CC(=O)Nc1cccc(N2C(=O)C(c3ccccc3)N(C)C(=O)c3cnc(Nc4ccc(N5CCN(C)CC5)cc4OC)nc32)c1 (stereo not given) | 778 | 5900 | 77.2 | 77.1 | 3820 | 14300 | 174 | > 1000 | – | – | – | –
C=CC(=O)Nc1cccc(N2C(=O)C(Cc3ccc(OC)cc3)N(C)C(=O)c3cnc(Nc4ccc(N5CCN(C)CC5)cc4OC)nc32)c1 (stereo not given) | 88.3 | 820 | 33.9 | 97.1 | 280 | 16200 | 50 | 53.9 | – | – | – | –
C=CC(=O)Nc1cccc(N2C(=O)C3CCCN3C(=O)c3cnc(Nc4ccc(N5CCN(C)CC5)cc4OC)nc32)c1 (stereo not given) | > 1000 | 31400 | > 1000 | > 1000 | 6900 | 16100 | > 1000 | > 1000 | – | – | – | –
C=CC(=O)Nc1cccc(N2C(=O)C(C)N(C)C(=O)c3cnc(Nc4ccc(N5CCN(C)CC5)cc4OC)nc32)c1 (stereo not given) | 122 | 920 | 22.1 | 6.02 | 130 | 49200 | 41.6 | 50.9 | – | – | – | –
